# Residues, ends and D or L forms follow the SMILES beside them. *: point of attachment. Cbz = O=C(OCc1ccccc1)*
# Experiments:
# NF-κB [1] = test: EMSA of NF-κB DNA binding in nuclear extracts of treated myometrial cells; type: cell-based, human; conditions: myometrial cells; for IL-1β-induced NF-κB DNA binding: IL-1β stimulation 15 min
# Procedure: (§1) Electro-mobility shift assay (EMSA) analysis of NF-κB DNA binding in nuclear protein extracts from (A) myometrial cells, (B) L+amnion cells, and (C) L− amnion cells treated with 15dPGJ2 or vehicle for 2 h+/−IL-1b stimulation (15 min). Consensus kB probe used to assess NF-κB DNA binding, and consensus Oct-1 probe used as control.
# Consensus κB probe used to assess NF-κB DNA binding, consensus Oct-1 probe used as control. For supershift analysis, extracts were preincubated with antibodies against p50 or p65.
# EMSA analysis of nuclear protein extracts from myometrial cells treated with (A) WY-14643 or vehicle, and (B) high doses of troglitazone, WY-14643 or vehicle for 2 h followed by IL-1b stimulation (15 min). Consensus κB probe used to assess NFκB DNA binding, consensus Oct-1 and Sp-1 probes used as controls.
# (§2) EMSA analysis of nuclear protein extracts from (A) myometrial cells, and (B) amnion cells treated with PGA1 or vehicle for 2 h followed by IL-1b stimulation (15 min). Consensus κB probe used to assess NFκB DNA binding, consensus Oct-1 probe used as control. For supershift analysis, extracts were preincubated with antibodies against p50 or p65.
# (§3) Analysis of nuclear protein extracts from myometrial cells treated with PGE2 or vehicle for 2 h+/−TNFα or IL-1b stimulation (15 min). (A) EMSA using consensus κB probe. (B) Western immunoblot probing for nuclear p65.
# (§4) EMSA analysis of nuclear protein extracts from (A) L− amnion cells and (B) myometrial cells treated with vehicle, PGE2 or IL-1β. Consensus κB probe used.
# (§5) Myometrial tissue was collected at term from the upper margin of uterine incision at the time of lower segment caesarean section either prior to the onset of labour (L−) or […] (L+). L+ samples were collected by Dr Mark Johnson and Dr S Soorrana at Chelsea & Westminster Hospital. Myometrial tissue was dissected, rinsed in PBS, and digested in serum-free DMEM containing 15 mg/ml collagenase 1A (Sigma), 15 mg/ml collagenase X, and 50 mg/ml bovine serum albumin for 45 min at 37° C. The cell suspension was filtered through a cell strainer, centrifuged at 400 g for 5 min, and the pellet re-suspended and plated out in DMEM, 10% FCS (Helena BioScience), 1% L-glutamine, 1% penicillin-streptomycin. Cells were used between passage numbers 1-4.
# (§6) Nuclear and cytosolic protein extracts were obtained from cultured amnion cells as described by Schreiber et al (1989). For nuclear/cytosolic fractionation, confluent cell monolayers were scraped and lysed using a buffer containing 10 mM HEPES, 10 mM KCl, 0.1 mM EDTA, 0.1 mM EGTA, 2 mM DTT, 1% (v/v) NP-40 and complete protease inhibitor tablets (CPIs, Roche), diluted to manufacturer's instructions. Cell lysates were incubated on ice for 10 min and NP-40 added to a final concentration of 1% (v/v). Lysates were vortexed for 10 secs and centrifuged for 30 secs at 4° C., 12000 g. The supernatants were retained as the cytosolic protein extracts. The pellets were resuspended in buffer containing 10 mM HEPES, 10 mM KCl, 0.1 mM EDTA, 0.1 mM EGTA, 2 mM DTT, 400 mM NaCl, 1% NP-40 (v/v) and CPIs. Samples were shaken vigorously for 15 min in an ice bath. The nuclear protein extracts were obtained in the supernatant following a 5 min centrifugation at 4° C., 12000 g.
# (§7) Sense and antisense strands (175 nmole/ml each) were incubated in annealing buffer (10 mM Tris-HCl pH7.5, 100 mM NaCl, 1 mM EDTA) for 10 min at 65° C., and allowed to cool at room temperature for 2 h. 3.5 pmole double-stranded oligonucleotides were end-labelled with 0.37 MBq ^32P(γATP) by incubating for 30 min at 37° C. with T4 polynucleotide kinase. Labelled oligonucleotides were recovered by centrifugation at […] for 2 min through MicroSpin G-25 or G-50 sephadex columns (Amersham Biosciences). […]
# NF-κB [2] = test: Western immunoblot of NF-κB activation (p65, p50, IκB) in amnion cells; type: cell-based, human; conditions: L−
# Procedure: (§8) Western immunoblots of nuclear or cytosolic protein extracts from (A) myometrial cells, (B) L− amnion cells, and (C) L+amnion cells treated with 15dPGJ2 or vehicle for 2 h+/−IL-1, stimulation (15 min). Blots probed with antibodies against p65, p50 or IκBα.
# (§9) Placentae were obtained from patients at term either at elective Caesarean section prior to labour (L−) or following spontaneous labour onset and vaginal delivery (L+). Amnion cells were prepared as described in Bennett et al., (1989). Briefly, the amnion was separated from the placenta, washed 3× in PBS, cut into strips, and incubated in 0.51 mM EDTA in PBS for 15 min. The strips were washed in PBS 2× and digested with 2.5 mg/ml dispase in serum-free DMEM for 35 min at 37° C. The amnion was then shaken vigorously in DMEM, 10% FCS to dissociate the cells, the remaining strips discarded, and the cell suspension pelleted at 175 g for 10 min and cultured in DMEM, 10% FCS (Sigma), 1% L-glutamine, 1% penicillin-streptomycin.
# as §6
# Protein samples (20-70 μg) were mixed with Laemmli sample buffer (1:1) containing β-mercaptoethanol (5%), and boiled for 5 min. Proteins were then separated by SDS-PAGE (12-14% gels) and transferred onto PVDF membrane (Amersham Pharmacia Biotech). The membranes were blocked overnight in 5% non-fat milk prepared in PBS-T buffer, at 4° C. The blots were incubated with the primary antibody in 1% non-fat milk in PBS-T buffer for 1 h, and washed three times (10 min each) in PBS-T with vigorous shaking. The blots were then incubated with HRP-conjugated secondary antibody (diluted 1:2000 in 1% non-fat milk in PBS-T buffer) for 1 h and washed three times (10 min each) in PBS-T. Signal detection was achieved using enhanced chemi-luminescence (ECL plus system, Amersham Pharmacia Biotech) according to manufacturer's instructions. […]
# NF-κB [3] = test: Western immunoblot of NF-κB activation (p65, p50, IκB) in myometrial cells; type: cell-based, human; set-up: Accumulation of phosphorylated IκBα: dose or concentration left out as unconfirmed
# Procedure: as §8
# Western immunoblot of nuclear or cytosolic protein extracts from myometrial cells treated with PGA1 or vehicle for 2 h followed by IL-1β stimulation (15 min). Blots probed with antibodies against p65 or IκBa.
# as §3
# Western immunoblots of cytosolic extracts from myometrial cells (A) treated with 15dPGJ2 for 2 h+/−IL1b for 15 min; probed for IKK, and (B) treated with […] 15dPGJ2, […] MG132 or vehicle for 2 h, +/−IL-1β for 15 min; probed for IκBα.
# as §5, §6
# Protein samples (20-70 μg) were mixed with Laemmli sample buffer (1:1) containing β-mercaptoethanol (5%), and boiled for 5 min. Proteins were then separated by SDS-PAGE (12-14% gels) and transferred onto PVDF membrane (Amersham Pharmacia Biotech). The membranes were blocked overnight in 5% non-fat milk prepared in PBS-T buffer, at 4° C. The blots were incubated with the primary antibody in 1% non-fat milk in PBS-T buffer for 1 h, and washed three times (10 min each) in PBS-T with vigorous shaking. The blots were then incubated with HRP-conjugated secondary antibody (diluted 1:2000 in 1% non-fat milk in PBS-T buffer) for 1 h and washed three times (10 min each) in PBS-T. Signal detection was achieved using enhanced chemi-luminescence (ECL plus system, Amersham Pharmacia Biotech) according to manufacturer's instructions.
# 30-50 μg protein extracts were subjected to SDS-PAGE and Western immuno-blotting. Secondary antibodies were IgG-HRP and ECL Plus detection kit (Amersham Pharmacia Biotech, Amersham Place, Little Chalfont, Bucks, HP7 9NA) was used for visualisation.
# NF-κB [4] = test: EMSA of NF-κB DNA binding in nuclear extracts of treated amnion cells; type: cell-based, human
# Procedure: as §1
# EMSA analysis of nuclear protein extracts from amnion cells treated with 15dPGJ2+/−GW9662 or vehicle for 2 h followed by IL-1β stimulation (15 min). Consensus kB probe used to assess NFκB DNA binding, consensus Oct-1 probe used as control.
# as §2, §4, §9, §6, §7
# NF-κB [5] = test: NF-κB-dependent luciferase reporter (κB.BG.Luc) in myometrial cells; type: cell-based, human; conditions: treated 2 h, IL-1β 1 ng/ml 6 h
# Procedure: Myometrial cells were transiently transfected with the NFκB-dependent reporter construct κB.BG.Luc, treated with 15dPGJ2 or vehicle for 2 h, +/−IL-1β(1 ng/ml) for 6 h. […] Values are normalised for b-gal reporter activity. (NS=nonstimulated).
# Myometrial cells were transfected with […] κB.BG.Luc reporter and 200 ng PPAR-γ expression vector and treated with 15d-PGJ2 for 2 h followed by IL-1β (1 ng/ml) for 6 h. Values are normalised for β-galactosidase reporter activity. (NS=nonstimulated).
# as §5
# pGL3.6 κB.BG.luc: a NF-κB-dependent reporter construct with 6 copies of the NF-κB binding site.
# Cells were co-transfected with the renilla vector pRL-CMV or a β-galactosidase vector pCH110 as internal controls for transfection efficiencies.
# PPARα = conditions: GAL4 chimera transfection system; cited from earlier work
compound,measurement,setting,value
"CCCCC(C)(C)[C@H](O)/C=C/[C@H]1[C@H](O)CC(=O)[C@@H]1C/C=C\CCCC(=O)O [16,16-Dimethyl-PGE2]",Synergy with IL-1β or TNFα on NF-κB activity,NF-κB [1],nor did it synergise
same,IL-1β-induced NF-κB DNA binding,NF-κB [1]; treated 2 h,did not inhibit
same,TNFα- and IL-1β-induced NFκB activation,"NF-κB [1]; treated 2 h, TNFα or IL-1b 15 min",does not inhibit
same,Induction of NF-κB DNA binding / stimulation of NF-κB activity by the compound alone,"NF-κB [1]; listed as 16,16-dimethyl-PGE2",neither did it stimulate
same,Induction of NF-κB DNA binding / stimulation of NF-κB activity by the compound alone,NF-κB [1]; listed as PGE2,does not induce
same,IL-1β-induced p65 nuclear translocation,NF-κB [2],did not inhibit
same,IL-1β-induced p65 nuclear translocation,NF-κB [3],did not inhibit
same,Induction of NF-κB DNA binding by the compound alone,NF-κB [4]; L− amnion cells,does not induce
same,IL-1β-induced NF-κB DNA binding,"NF-κB [4]; L− and L+ amnion cells, treated 2 h, IL-1β stimulation 15 min",did not inhibit
"CN(CCOc1ccc(C[C@H](Nc2ccccc2C(=O)c2ccccc2)C(=O)O)cc1)c1ccccn1 [GW1929, reference compound]",IL-1β-induced NF-κB DNA binding,NF-κB [1]; treated 2 h,failed to inhibit
same,IL-1-induced NF-κB transcriptional activity,NF-κB [5],not
"CC(C)C[C@@H](C=O)NC(=O)[C@H](CC(C)C)NC(=O)[C@H](CC(C)C)NC(=O)OCc1ccccc1 [MG132, reference compound] (Cbz-Leu-Leu-Leu-aldehyde)",IL-1β-induced IκBα degradation,NF-κB [3],prevented
same,Accumulation of phosphorylated IκBα,"NF-κB [3]; 2 h, IL-1β 15 min",resulted in the accumulation
"Cc1cccc(Nc2cc(Cl)nc(SCC(=O)O)n2)c1C [WY-14643, reference compound]",NF-κB DNA binding,NF-κB [1]; 10-100 μM concentrations,had no effect
same,IL-1-induced NF-κB transcriptional activity,NF-κB [5],not
same,Doses that can transactivate PPARα,PPARα,5 to 25 µM
O=C(Nc1ccccc1)c1cc([N+](=O)[O-])ccc1Cl [GW-9662],Alleviation of 15d-PGJ2 inhibition of NF-κB DNA binding,NF-κB [4]; amnion cells treated with 15d-PGJ2 in the presence of GW-9662,failed to alleviate

# — patent US20070270392A1, “Use of a Cyclopentenone Prostaglandin for Delaying the Onset and/or Preventing the Continuation of Labour” (Imperial College Innovations Limited, priority 2003, published 2007)
